Assay results: patent US20170202847A1, “METHODS FOR THE TREATMENT OF TUMORS” (The University of North Carolina at Chapel Hill, priority 2014, published 2017)
“Also recorded” adds a separate entry of the source. Read-outs that look alike come from different tables or passages of the source.

Experiments:
[1] = Dose-finding and tolerability in mice, drug in chow; format: in vivo; conditions: for MTD: mouse, in vivo
Procedure: […]. AZD6244 is a MEK inhibitor that was administered in mouse chow at a predicted dose of 37 mg/kg (MTD). UNC2025 was administered in chow at a predicted dose of 120 mg/kg (MTD). […]. AZD6244 is a MEK inhibitor that was dosed in mouse chow at a predicted dose of 37 mg/kg (MTD). UNC2025 was dosed in chow at a predicted dose of 120 mg/kg (MTD).
. Once daily, oral dosing inhibits the growth of Mer-expressing leukemia and NSCLC xenografts. […]. After dose-finding studies in wild-type mice established an MTD, the inhibitor was given at 120 mpk/d in mouse chow. […]. The overall response was 10% (partial responses and stable disease). There were no complete responses. […]. […] See, FIG. 16A and FIG. 16B.

[2] = test system: Colo699 (Mer+, FGFR+) and H226 (Mer+, FGFR+) NSCLC cells; assay: Soft agar colony formation of NSCLC cells, Mer TKI and FGFR TKI; format: cell-based; conditions: 14 days
Pharmacokinetics in mice = conditions: mouse, in vivo
[3] = test system: RAS-driven, INK4a/Arf null melanoma GEMM (TRIA); assay: RAS-driven, INK4a/Arf null melanoma GEMM (TRIA); format: in vivo
Procedure: FIG. 14 is a waterfall plot showing percent change in tumor volumes verses days of treatment in the TRIA GEM model of melanoma. Mice were treated with UNC2025, AZD6244, Carbo/Taxol or received no treatment.
After dose-finding studies in wild-type mice established an MTD, the inhibitor was given at 120 mpk/d in mouse chow.

[4] = test system: B-RAF wildtype (HMCB) and B-RAF mutant (G361) cell lines; assay: Colony formation of melanoma cell lines; format: cell-based; conditions: for colony formation: HMCB and G361
Excerpt: (§1) See, FIG. 25A and FIG. 25B.

[5] = test system: murine model of breast cancer (C3TAg); assay: Murine model of breast cancer (C3TAg); format: in vivo; conditions: 120 mpk/d in chow
[6] = test system: HMCB and G361 melanoma cell lines; assay: Apoptosis of melanoma cell lines by flow cytometry (YO-PRO-1 iodide/propidium iodide); format: cell-based
Excerpt: as §1

[7] = test system: ERK, AKT, and STAT6 signaling downstream of MER; conditions: immunoblot
Procedure: Downstream signaling was evaluated by immunoblotting, and induction of apoptosis was determined by flow cytometry in cells stained with YO-PRO®-1 iodide and propidium iodide.

[8] = test system: PyVmT mammary gland tumor cells; assay: Orthotopic PyVmT mammary gland tumor model in immunocompetent C57Bl/6 mice; format: in vivo
Procedure: FIG. 10A is an immunoblot showing the presence of Mer TK in J774 murine macrophage and absence in PyVmT murine mammary tumor cells. FIGS. 10B and 10C illustrate the results from an immune-competent orthotopic model of Mer-negative breast cancer. […] FIG. 10B is a graph showing tumor volume (mm^3) verses days post-tumor injection.
FIG. 21A is a timeline illustrating a mouse model using PyVmT cells. […] Mice were dosed from day −2 to day 28. At day zero, 1×10^6 PyVmT cells were implanted into the inguinal mammary fatpad of mice. Tumor volumes were measured at days 16, 19, 21, 23, 26 and 28. Day 28 was the end of the study. FIG. 21B is a graph illustrating tumor volume […] verses days post-tumor injection.
See, FIGS. 10A-10C and FIGS. 21A and 21B.

Mer = target: T1, Mer (Homo sapiens, UniProt Q12866); assay: Mer autophosphorylation in NSCLC cell lines by immunoblot; format: cell-based; conditions: numerous cell lines
T1 sequence (Q12866 21-999): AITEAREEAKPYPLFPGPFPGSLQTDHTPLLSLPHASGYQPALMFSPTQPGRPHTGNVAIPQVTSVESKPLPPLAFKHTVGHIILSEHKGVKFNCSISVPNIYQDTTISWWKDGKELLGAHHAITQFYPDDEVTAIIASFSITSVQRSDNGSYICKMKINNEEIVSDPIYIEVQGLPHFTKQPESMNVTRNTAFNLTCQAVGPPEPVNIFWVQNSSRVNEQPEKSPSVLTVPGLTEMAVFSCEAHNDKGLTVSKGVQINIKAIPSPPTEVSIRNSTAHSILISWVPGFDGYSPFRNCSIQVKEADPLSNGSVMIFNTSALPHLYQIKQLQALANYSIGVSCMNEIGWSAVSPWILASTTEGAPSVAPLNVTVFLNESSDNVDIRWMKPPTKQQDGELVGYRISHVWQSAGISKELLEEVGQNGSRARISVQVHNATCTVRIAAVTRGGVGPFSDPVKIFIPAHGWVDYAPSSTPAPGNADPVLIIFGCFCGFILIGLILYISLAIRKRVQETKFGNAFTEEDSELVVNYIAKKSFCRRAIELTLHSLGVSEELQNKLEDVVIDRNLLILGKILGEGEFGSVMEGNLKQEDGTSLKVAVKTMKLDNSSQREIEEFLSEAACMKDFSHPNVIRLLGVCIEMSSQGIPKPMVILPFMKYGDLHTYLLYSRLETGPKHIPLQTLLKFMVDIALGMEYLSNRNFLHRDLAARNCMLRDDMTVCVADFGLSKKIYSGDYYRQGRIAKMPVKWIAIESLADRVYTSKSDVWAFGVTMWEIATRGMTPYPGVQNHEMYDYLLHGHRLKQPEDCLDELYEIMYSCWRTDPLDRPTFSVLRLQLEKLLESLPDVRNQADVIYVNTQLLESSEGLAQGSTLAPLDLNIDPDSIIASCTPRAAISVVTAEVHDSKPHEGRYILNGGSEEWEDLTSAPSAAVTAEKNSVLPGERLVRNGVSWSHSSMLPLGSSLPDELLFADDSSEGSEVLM
Procedure: (§2) The effects of Mer TKI treatment on activation of Mer and related members of the TAM-family of kinases, Axl and Tyro3, and effects on downstream proliferative and pro-survival signaling pathways were analyzed by immunoblot. In addition, Mer TKI-mediated anti-tumor activity was determined in a panel of NSCLC cell lines using soft-agar and clonogenic assays. Cells were stained with YoPro-1-iodide and propidium iodide dyes and induction of apoptosis was determined using flow cytometry. Finally, a subcutaneous murine xenograft model was employed to determine therapeutic effects in vivo.

Colo699 cells = assay: Subcutaneous murine xenograft model of NSCLC; format: in vivo
Procedure: FIG. 18A is a graph illustrating tumor volume verses days treated. Colo699 tumor cells were subcutaneously implanted in mice.
as §2

[9] = test system: MER-expressing ALL cell lines; assay: Apoptosis and colony formation in methylcellulose of ALL cell lines; format: cell-based
TRIA = TRIA tumors injected into NSG mice; format: in vivo; conditions: linear regression p<0.001
Procedure: FIG. 20A is a graph of tumor volume (mm^3) verses days. This is treatment of the intact GEMM. FIG. 20B is a graph illustrating the results from TRIA injected into NSG mice. The mice were then treated with no drug or UNC2025. […] In FIGS. 20A and 20B, both treated slopes were statistically significant compared to untreated slopes using linear regression p<0.001. FIG. 20C; Pten/Braf genetically engineered mice were treated with no drug or UNC2025. The graph illustrates tumor volumes (mm^3) verses days on treatment.

[10] = mouse, in vivo
SKMEL119 melanoma cells = assay: Invasion into collagen matrix; format: cell-based
[11] = test system: FLT3-ITD-positive (Molm-13 and MV4; 11) AML cell lines; assay: Apoptosis of FLT3-ITD AML cell lines by flow cytometry; format: cell-based; conditions: vehicle 10±2%, p<0.001
Excerpt: (§3) FLT-3 and MER tyrosine kinases have been previously identified as potential targets in the treatment of acute myeloid leukemia (AML). Expression of FLT-3 internal tandem duplication (ITD) occurs in ˜30-40% of AML patient samples and MER overexpression has been detected in ˜80-100%. In this example, a novel first-in-class small molecule inhibitor that has potent activity against both of these kinases and mediates growth inhibition or apoptosis of cell lines and patient myeloblasts is disclosed. […] See, FIGS. 4A-F.

[12] = test system: primary AML patient samples (MER and/or FLT3-ITD positive); assay: Primary AML patient samples: phosphorylation, apoptosis, colony formation in methylcellulose; format: cell-based, human
Excerpt: as §3

[13] = test system: MER-positive (Kasumi-1 and U937) AML cell lines; assay: Apoptosis of MER-positive AML cell lines by flow cytometry; format: cell-based; conditions: vehicle 20±10%, p<0.01
Excerpt: as §3

[14] = test system: MER-positive (Kasumi-1 and U937) AML cell lines; assay: Soft agar colony formation of MER-positive AML cell lines; format: cell-based; conditions: vehicle = 100, p<0.01
Excerpt: as §3

AKT and STAT6 activation = AKT and STAT6 activation in AML cell lines; format: cell-based; conditions: short term exposure; cell lines expressing FLT3-ITD or MER
Excerpt: as §3

[15] = compared to vehicle treated tumor-bearing mice

Cn1cnc2c(F)c(Nc3ccc(Br)cc3Cl)c(C(=O)NOCCO)cc21 [AZD6244, reference compound]
MTD [1]: 37 mg/kg

COc1cc(CCc2cc(NC(=O)c3ccc(N4CC(C)NC(C)C4)cc3)n[nH]2)cc(OC)c1 (stereo not drawn) [AZD-4547, reference compound]
colony formation in soft agar [2]: inhibited

CCCCNc1ncc2c(-c3ccc(CN4CCN(C)CC4)cc3)cn([C@H]3CC[C@H](O)CC3)c2n1 [MRX6313]
oral bioavailability / pharmacokinetics (Pharmacokinetics in mice): orally bioavailable; also recorded: favorable pharmacokinetics | Mer pharmacodynamics marker (platelet aggregation) ([1]; 120 mpk/d in mouse chow): inhibition of second phase platelet aggregation | weight loss ([1]; 120 mpk/d in mouse chow): did not cause weight loss | MTD ([1]; oral, administered in chow, read-out: MTD, predicted dose in mouse chow): 120 mg/kg | toxicity in the TRIA model ([3]; 120 mpk/d in chow): mild, well tolerated toxicity | complete responses (CRs) ([3]; TRIA, 8 mice): 3 | single agent activity ([3]; TRIA, 120 mpk/d in chow): pronounced single agent activity | percent change in tumor volumes, waterfall plot, ranking ([3]; versus AZD6244, Carbo/Taxol, no treatment): best response | concentration resulting in an almost complete block in colony formation ([4]; B-RAF wild-type and B-RAF mutant cell lines): ≥ 300 nM | colony formation [4]: reduced colony growth | single agent activity [5]: did not exhibit single agent activity | apoptosis [6]: induced apoptosis | downstream signaling [7]: abrogates signaling downstream of MER | RNA-sequence data on immune cells ([8]; 3 mg/kg twice daily by oral gavage): increases pro-inflammatory cytokines in CD11b^+ cells and activates CD8^+ T cell effector function | primary tumor growth reduction compared to vehicle ([8]; after four weeks of daily treatment): two-fold | reduction of serum IL-4 level [8, 15]: 30% | reduction of serum IL-10 level [8, 15]: 20% | median survival (B-ALL xenograft; days after inoculation with tumor cells, vehicle 27 days, p<0.0001): 70 days | tumor burden (B-ALL xenograft; minimal residual disease model): dose dependent reduction in tumor burden | concentrations that blocked Mer autophosphorylation (Mer): sub-micromolar | tumor volume (Colo699 cells): significant decrease in tumor volume | colony formation in soft agar [2]: inhibited | apoptosis and colony-formation in methylcellulose [9]: induction of apoptosis and reduced colony-formation | tumor volumes versus control (TRIA): significantly reduced

CCCCNc1ncc2c(-c3ccc(S(=O)(=O)N4CCOCC4)cc3)nn(C3CCC(O)CC3)c2n1 (stereo not drawn) [UNC1062]
colony formation [4]: reduced colony formation | oral bioavailability / pharmacokinetics [10]: orally bioavailable | invasion into collagen matrix (SKMEL119 melanoma cells): reduced invasion

CCCCNc1ncc2c(-c3ccc(S(=O)(=O)N4CCOCC4)cc3)cn(C3CCC(O)CC3)c2n1 (stereo not drawn) [UNC1666]
apoptotic cells [11]: 90±6% | Mer and Flt3 kinase phosphorylation and downstream signaling ([12]; leukemic blasts from a patient with AML, 50, 100 and 300 nM): abrogates | colony formation in methylcellulose ([12]; six primary patient samples): near complete inhibition of colony formation | induction of apoptosis ([12]; six primary patient samples): dose-dependent induction of apoptosis | apoptotic cells [13]: 66±10% | relative colony counts [14]: 34±15 | AKT and STAT6 activation (AKT and STAT6 activation): dose-dependent decrease
